Structures are written as SMILES. Structures can show the parent of a compound that is named as a salt.

Consider 29 compounds from patent US20110190269A1, “GAMMA SECRETASE MODULATORS” (priority 2010, published 2011).

The subject of this experiment is γ-secretase. The experiment is described as follows: Cellular γ-secretase assay (inhibition of Aβ42 secretion). Particulars: human neuroglioma H4 cells overexpressing human APP, 22 hrs incubation. The format is cell-based. The method in brief: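 H4 neuroglioma cells overexpressing human APP got a ten-point compound dilution (0.4% DMSO final) for 22 h at 37 °C. Secreted Aβ42 in the supernatant was measured by electrochemiluminescence sandwich immunoassay (capture biotinylated 6E10, detection ruthenylated BAP15). IC50 came from a nonlinear regression fit.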
What is called EC50 is the concentration needed to bring the measured effect to its halfway point. A high value points to a need for much substance. The compound `COc1cc(Nc2nc3c(-c4ccc(F)c(F)c4)cc(Cl)cn3n2)ccc1-n1cnc(C)c1` [Example 81, 6-Chloro-8-(3,4-difluorophenyl)-N-(3-methoxy-4-(4-methyl-1H-imidazol-1-yl)phenyl)-[1,2,4]triazolo[1,5-a]pyridin-2-amine] registered an EC50 of 22 nM. This counts as double-digit nanomolar.

Turning to `COc1cc(Nc2nc3c(-c4ccc(N5CCOCC5)cc4)cc(C)cn3n2)ccc1-n1cnc(C)c1` [Example 82, N-(3-Methoxy-4-(4-methyl-1H-imidazol-1-yl)phenyl)-6-methyl-8-(4-morpholinophenyl)-[1,2,4]triazolo[1,5-a]pyridin-2-amine], a half-maximal response (EC50) required 242 nM.

Compound `COc1cc(Nc2nc3c(-c4ccc(CC#N)cc4)cc(C)cn3n2)ccc1-n1cnc(C)c1` [Example 83, 2-(4-(2-(3-Methoxy-4-(4-methyl-1H-imidazol-1-yl)phenylamino)-6-methyl-[1,2,4]triazolo[1,5-a]pyridin-8-yl)phenyl)acetonitrile] yielded an EC50 of 408 nM. This EC50 is about 1.7-fold higher than that of the compound before.

`COc1ccc(-c2cc(C)cn3nc(Nc4ccc(-n5cnc(C)c5)c(OC)c4)nc23)c(OC)c1` [Example 84, 8-(2,4-Dimethoxyphenyl)-N-(3-methoxy-4-(4-methyl-1H-imidazol-1-yl)phenyl)-6-methyl-[1,2,4]triazolo[1,5-a]pyridin-2-amine] yielded an EC50 of 321 nM. This EC50 and that of the compound before are within 1.5-fold of each other.

With `COc1cc(Nc2nc3c(-c4ccc(F)c(F)c4)cc(F)cn3n2)ccc1-n1cnc(C)c1` [Example 85, 8-(3,4-Difluorophenyl)-6-fluoro-N-(3-methoxy-4-(4-methyl-1H-imidazol-1-yl)phenyl)-[1,2,4]triazolo[1,5-a]pyridin-2-amine], it took 32 nM to reach a half-maximal effect (EC50).

On to `COc1cc(Nc2nc3c(-c4ccc(F)cc4Cl)cc(F)cn3n2)ccc1-n1cnc(C)c1` [Example 86, 8-(2-Chloro-4-fluorophenyl)-6-fluoro-N-(3-methoxy-4-(4-methyl-1H-imidazol-1-yl)phenyl)-[1,2,4]triazolo[1,5-a]pyridin-2-amine], for which the response was half-maximal at 143 nM (EC50). Against the preceding compound, the EC50 is about 4.5-fold higher.

The compound `COc1cc(Nc2nc3c(-c4ccc5nc(C)oc5c4)cc(C)cn3n2)ccc1-n1cnc(C)c1` [Example 87, N-(3-Methoxy-4-(4-methyl-1H-imidazol-1-yl)phenyl)-6-methyl-8-(2-methylbenzo[d]oxazol-6-yl)-[1,2,4]triazolo[1,5-a]pyridin-2-amine] showed an EC50 of 44 nM.

`COc1cc(Nc2nc3c(-c4ccc5ncn(C)c5c4)cc(C)cn3n2)ccc1-n1cnc(C)c1` [Example 88, N-(3-Methoxy-4-(4-methyl-1H-imidazol-1-yl)phenyl)-6-methyl-8-(1-methyl-1H-benzo[d]imidazol-6-yl)-[1,2,4]triazolo[1,5-a]pyridin-2-amine] yielded an EC50 of 188 nM. Compared with the last compound, the EC50 is about 4.3-fold higher.

`COc1cc(Nc2nc3c(-c4ccc5c(c4)OCCN5C)cc(C)cn3n2)ccc1-n1cnc(C)c1` [Example 89, N-(3-Methoxy-4-(4-methyl-1H-imidazol-1-yl)phenyl)-6-methyl-8-(4-methyl-3,4-dihydro-2H-benzo[b][1,4]oxazin-7-yl)-[1,2,4]triazolo[1,5-a]pyridin-2-amine] displayed an EC50 of 290 nM.

The compound `COc1cc(Nc2nc3c(-c4ccc(C(C)(C)O)c(F)c4)cc(C)cn3n2)ccc1-n1cnc(C)c1` [Example 90, 2-(2-Fluoro-4-(2-(3-methoxy-4-(4-methyl-1H-imidazol-1-yl)phenylamino)-6-methyl-[1,2,4]triazolo[1,5-a]pyridin-8-yl)phenyl)propan-2-ol] came in with an EC50 of 475 nM. Compared with the last compound, the EC50 is about 1.6-fold higher.

`COc1cc(Nc2nc3c(-c4ccc(Cl)cc4C=O)cc(C)cn3n2)ccc1-n1cnc(C)c1` [Example 91, 5-Chloro-2-(2-(3-methoxy-4-(4-methyl-1H-imidazol-1-yl)phenylamino)-6-methyl-[1,2,4]triazolo[1,5-a]pyridin-8-yl)benzaldehyde]: a half-maximal effect (EC50) was put at 310 nM.

The compound `COc1cc(Nc2nc3c(-c4ccc(Cl)cc4CO)cc(C)cn3n2)ccc1-n1cnc(C)c1` [Example 92, (5-Chloro-2-(2-(3-methoxy-4-(4-methyl-1H-imidazol-1-yl)phenylamino)-6-methyl-[1,2,4]triazolo[1,5-a]pyridin-8-yl)phenyl)methanol] gave an EC50 of 375 nM.

As for `COc1cc(Nc2nc3nc(C)cc(-c4ccc(F)c(Cl)c4)n3n2)ccc1-n1cnc(C)c1` [Example 93, 7-(3-Chloro-4-fluorophenyl)-N-(3-methoxy-4-(4-methyl-1H-imidazol-1-yl)phenyl)-5-methyl-[1,2,4]triazolo[1,5-a]pyrimidin-2-amine], the EC50 was 68 nM.

The compound `CCOC(=O)c1cc(-c2ccc(F)c(Cl)c2)n2nc(Nc3ccc(-n4cnc(C)c4)c(OC)c3)nc2n1` [Example 94, Ethyl 7-(3-chloro-4-fluorophenyl)-2-(3-methoxy-4-(4-methyl-1H-imidazol-1-yl)phenylamino)-[1,2,4]triazolo[1,5-a]pyrimidine-5-carboxylate] returned an EC50 of 39 nM.

Compound `COc1cc(Nc2nc3c(-c4cccc(CNC(=O)OC(C)(C)C)c4)cc(C)cn3n2)ccc1-n1cnc(C)c1` [Example 95, tert-Butyl 3-(2-(3-methoxy-4-(4-methyl-1H-imidazol-1-yl)phenylamino)-6-methyl-[1,2,4]triazolo[1,5-a]pyridin-8-yl)benzylcarbamate] showed an EC50 of 84 nM.

With `COc1cc(Nc2nc3c(C4=CCN(C(=O)OC(C)(C)C)CC4)cc(C)cn3n2)ccc1-n1cnc(C)c1` [Example 96, tert-Butyl 4-(2-(3-methoxy-4-(4-methyl-1H-imidazol-1-yl)phenylamino)-6-methyl-[1,2,4]triazolo[1,5-a]pyridin-8-yl)-5,6-dihydropyridine-1(2H)-carboxylate], the response was half-maximal at 93 nM (EC50).

`COc1cc(Nc2nc3c(-c4cccc(CN)c4)cc(C)cn3n2)ccc1-n1cnc(C)c1` [Example 97, 8-(3-(Aminomethyl)phenyl)-N-(3-methoxy-4-(4-methyl-1H-imidazol-1-yl)phenyl)-6-methyl-[1,2,4]triazolo[1,5-a]pyridin-2-amine dihydrochloride] had an EC50 of 470 nM.

Compound `COc1cc(Nc2nc3c(-c4cccc(CNS(C)(=O)=O)c4)cc(C)cn3n2)ccc1-n1cnc(C)c1` [Example 98, N-(3-(2-(3-Methoxy-4-(4-methyl-1H-imidazol-1-yl)phenylamino)-6-methyl-[1,2,4]triazolo[1,5-a]pyridin-8-yl)benzyl)methanesulfonamide] returned an EC50 of 390 nM.

For the compound `COc1cc(Nc2nc3c(N4CCOCC4)cccn3n2)ccc1-n1cnc(C)c1` [Example 101, N-(3-Methoxy-4-(4-methyl-1H-imidazol-1-yl)phenyl)-8-morpholino-[1,2,4]triazolo[1,5-a]pyridin-2-amine], the response was half-maximal at 227 nM (EC50).

As for `CCOC(=O)N1CC=C(c2cc(C)cn3nc(Nc4ccc(-n5cnc(C)c5)c(OC)c4)nc23)CC1` [Example 107, Ethyl 4-(2-(3-methoxy-4-(4-methyl-1H-imidazol-1-yl)phenylamino)-6-methyl-[1,2,4]triazolo[1,5-a]pyridin-8-yl)-5,6-dihydropyridine-1(2H)-carboxylate], the response was half-maximal at 356 nM (EC50).

Regarding `COc1cc(Nc2nc3c(C4=CCN(CC#N)CC4)cc(C)cn3n2)ccc1-n1cnc(C)c1` [Example 108, 2-(4-(2-(3-Methoxy-4-(4-methyl-1H-imidazol-1-yl)phenylamino)-6-methyl-[1,2,4]triazolo[1,5-a]pyridin-8-yl)-5,6-dihydropyridin-1(2H)-yl)acetonitrile], a half-maximal effect (EC50) was put at 488 nM.

With `COc1cc(Nc2nc3n(n2)C(c2ccccc2)CCO3)ccc1-n1cnc(C)c1` (centres unmarked) [Example 109, N-(3-Methoxy-4-(4-methyl-1H-imidazol-1-yl)phenyl)-7-phenyl-6,7-dihydro-5H-[1,2,4]triazolo[5,1-b][1,3]oxazin-2-amine], the EC50 came out at 270 nM.

Compound `Cc1cn(-c2ccc(Nc3nc4c(-c5ccc(F)cc5Cl)cccn4n3)cc2F)cn1` [Example 110, 8-(2-chloro-4-fluorophenyl)-N-(3-fluoro-4-(4-methyl-1H-imidazol-1-yl)phenyl)-[1,2,4]triazolo[1,5-a]pyridin-2-amine] returned an EC50 of 29 nM.

Compound `Cc1cn(-c2c(F)cc(Nc3nc4c(-c5ccc(F)cc5Cl)cccn4n3)cc2F)cn1` [Example 111, 8-(2-chloro-4-fluorophenyl)-N-(3,5-difluoro-4-(4-methyl-1H-imidazol-1-yl)phenyl)-[1,2,4]triazolo[1,5-a]pyridin-2-amine] registered an EC50 of 29 nM.

Compound `COc1cc(Nc2nc3c(-c4ccc(F)cc4Cl)cccn3n2)cc(F)c1-n1cnc(C)c1` [Example 112, 8-(2-chloro-4-fluorophenyl)-N-(3-fluoro-5-methoxy-4-(4-methyl-1H-imidazol-1-yl)phenyl)-[1,2,4]triazolo[1,5-a]pyridin-2-amine] gave an EC50 of 46 nM.

Consider `Cc1cn(-c2ccc(Nc3nc4c(-c5ccc(F)cc5Cl)cccn4n3)cc2C#N)cn1` [Example 113, 5-(8-(2-chloro-4-fluorophenyl)-[1,2,4]triazolo[1,5-a]pyridin-2-ylamino)-2-(4-methyl-1H-imidazol-1-yl)benzonitrile], for which the midpoint of the response, the EC50, lay at 81 nM.

In turn, `COc1cc(Nc2nc3c(-c4ccc(F)cc4Cl)cccn3n2)ccc1-c1cc(C)ncn1` [Example 114, 8-(2-chloro-4-fluorophenyl)-N-(3-methoxy-4-(6-methylpyrimidin-4-yl)phenyl)-[1,2,4]triazolo[1,5-a]pyridin-2-amine] yielded an EC50 of 238 nM.

On to `Cc1cc(-c2ccc(Nc3nc4c(-c5ccc(F)cc5Cl)cccn4n3)cc2)nc(C)n1` [Example 115, 8-(2-chloro-4-fluorophenyl)-N-(4-(2,6-dimethylpyrimidin-4-yl)phenyl)-[1,2,4]triazolo[1,5-a]pyridin-2-amine], for which the EC50 stood at 242 nM.

In turn, `COc1cc(Nc2nc3c(-c4ccc(Cl)cc4)ccc(C(C)(C)O)n3n2)ccc1-n1cnc(C)c1` [Example 116, 2-{8-(4-Chloro-phenyl)-2-[3-methoxy-4-(4-methyl-imidazol-1-yl)-phenylamino]-[1,2,4]triazolo[1,5-a]pyridin-5-yl}-propan-2-ol] had an EC50 of 117 nM. Against the preceding compound, the EC50 is about 2.1-fold lower.
